Experimental data from PubChem BioAssay AID2742 (NMMLSC, 2010).
Active and inactive are the calls of the source.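 Rule for the calls: active = fitted half-maximal concentration for changing background-corrected GFP signal at or below a set limit; inactive = the rest.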

Assay: modulators of MEP2-GFP levels in yeast, dose response, S. cerevisiae, flow cytometry GFP, MLPCN hits (AID 2742);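 note: GFP tag reports level of MEP2 protein as a downstream target of TOR signalling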
Conditions: S. cerevisiae MEP2-GFP strain, flow cytometry fluorescence, 3 h; at 33 µM (top of the series)

**Q.** For `CC(=O)[C@]1(O)Cc2c(O)c3c(c(O)c2[C@@H](O[C@H]2C[C@H](N)[C@H](O)[C@H](C)O2)C1)C(=O)c1ccccc1C3=O`, which GFP fluorescence (kMESF), higher = increase is on record?
**A.** Its GFP fluorescence (kMESF), higher = increase is 4.71 kMESF (inactive).

**Q.** Which GFP fluorescence (kMESF), higher = increase does the source give for `COc1cccc2c(=O)c(C(=O)NCc3cccs3)c[nH]c12` here?
**A.** The GFP fluorescence (kMESF), higher = increase was 1.57 kMESF (inactive).

**Q.** For `Cc1ccc(NC(=O)CCc2ccccc2)cc1S(=O)(=O)N1CCOCC1`, which GFP fluorescence (kMESF), higher = increase is on record?
**A.** Its GFP fluorescence (kMESF), higher = increase is 1.72 kMESF (inactive).

**Q.** Which GFP fluorescence (kMESF), higher = increase does the source give for `COC(CNC(=O)c1ccc2c3c(onc13)-c1ccccc1C2=O)OC` here?
**A.** Its GFP fluorescence (kMESF), higher = increase is -0.77 kMESF (inactive).

**Q.** For `CCOC(=O)CSC1=NC(=O)/C(=C/c2ccc(OC)cc2)S1`, which GFP fluorescence (kMESF), higher = increase is on record?
**A.** Its GFP fluorescence (kMESF), higher = increase is 1.26 kMESF (inactive).

**Q.** With `O=C(Oc1c(Cl)cc(Cl)c2cccnc12)c1cccc([N+](=O)[O-])c1` as the molecule, how does the GFP fluorescence (kMESF), higher = increase read?
**A.** The GFP fluorescence (kMESF), higher = increase was 4.13 kMESF (inactive).

**Q.** With `O=[N+]([O-])c1ccc(N=Nc2c(Cl)cc(O)cc2Cl)cc1` as the molecule, how does the GFP fluorescence (kMESF), higher = increase read?
**A.** Its GFP fluorescence (kMESF), higher = increase is 4.93 kMESF (inactive).

**Q.** Which GFP fluorescence (kMESF), higher = increase does the source give for `COc1ccc(C2=CC3=C(Br)C(=O)C(C)(O)C(=O)C3=CO2)cc1` (configuration not stated) here?
**A.** Its GFP fluorescence (kMESF), higher = increase is -0.97 kMESF (inactive).

**Q.** For `O=C(COc1ccccc1)NNC(=S)NC(=O)c1ccccc1`, which GFP fluorescence (kMESF), higher = increase is on record?
**A.** Its GFP fluorescence (kMESF), higher = increase is 2.59 kMESF (inactive).

**Q.** For `O=C(Nc1ccccc1)c1nnsc1S(=O)(=O)c1ccc(Cl)cc1`, which GFP fluorescence (kMESF), higher = increase is on record?
**A.** Its GFP fluorescence (kMESF), higher = increase is 6.03 kMESF (inactive).

**Q.** Which GFP fluorescence (kMESF), higher = increase does the source give for `CCOC(=O)C(C(=O)OCC)C(C(=O)OCC)N1CCOCC1` (configuration not stated) here?
**A.** Its GFP fluorescence (kMESF), higher = increase is 4.83 kMESF (inactive).

**Q.** Which GFP fluorescence (kMESF), higher = increase does the source give for `COc1ccc(OC)c(S(=O)(=O)ON2C(=O)c3ccccc3C2=O)c1` here?
**A.** The GFP fluorescence (kMESF), higher = increase was -8.29 kMESF (inactive).

**Q.** Which GFP fluorescence (kMESF), higher = increase does the source give for `CC1=C(C)/C(=N\OS(=O)(=O)c2ccc(C)cc2)C=CC1=O` here?
**A.** The GFP fluorescence (kMESF), higher = increase was 4.38 kMESF (inactive).

**Q.** Which GFP fluorescence (kMESF), higher = increase does the source give for `CC(Oc1ccc(Cl)cc1)C(=O)NNC(=S)NC(=O)c1ccco1` (configuration not stated) here?
**A.** Its GFP fluorescence (kMESF), higher = increase is 5.05 kMESF (inactive).

**Q.** For `O=C1c2cccc3c([N+](=O)[O-])ccc(c23)C(=O)N1c1ccccn1`, which GFP fluorescence (kMESF), higher = increase is on record?
**A.** Its GFP fluorescence (kMESF), higher = increase is 12.2 kMESF (inactive).

**Q.** With `O=C(c1ccc(Cl)c([N+](=O)[O-])c1)N1CCN(c2ccccc2)CC1` as the molecule, how does the GFP fluorescence (kMESF), higher = increase read?
**A.** The GFP fluorescence (kMESF), higher = increase was 2.46 kMESF (inactive).

**Q.** With `O=C(/C=C/c1ccccc1[N+](=O)[O-])c1ccccc1Br` as the molecule, how does the GFP fluorescence (kMESF), higher = increase read?
**A.** The GFP fluorescence (kMESF), higher = increase was 62.3 kMESF (inactive).

**Q.** Which GFP fluorescence (kMESF), higher = increase does the source give for `Cn1ncc(S(=O)(=O)Cc2ccccc2)c(Cl)c1=O` here?
**A.** The GFP fluorescence (kMESF), higher = increase was 4.57 kMESF (inactive).

**Q.** For `O=C(Oc1oc(-c2ccco2)nc1C=Nc1ccc(Cl)cc1)c1ccco1`, which GFP fluorescence (kMESF), higher = increase is on record?
**A.** Its GFP fluorescence (kMESF), higher = increase is 3.6 kMESF (inactive).

**Q.** Which GFP fluorescence (kMESF), higher = increase does the source give for `O=C(/C=C/c1ccccn1)c1ccc(Br)cc1O` here?
**A.** Its GFP fluorescence (kMESF), higher = increase is 2.38 kMESF (inactive).

**Q.** For `Cc1cc(S(=O)(=O)ON2C(=O)c3ccccc3C2=O)ccc1F`, which GFP fluorescence (kMESF), higher = increase is on record?
**A.** Its GFP fluorescence (kMESF), higher = increase is 4.9 kMESF (inactive).

**Q.** With `Cc1ccc(C(=O)/C=C/C(=O)c2ccc(C)cc2)cc1` as the molecule, how does the GFP fluorescence (kMESF), higher = increase read?
**A.** Its GFP fluorescence (kMESF), higher = increase is 3.81 kMESF (inactive).

**Q.** With `CCCc1cc(=O)oc2cc(C)cc(OCC(=O)NC3CC3)c12` as the molecule, how does the GFP fluorescence (kMESF), higher = increase read?
**A.** Its GFP fluorescence (kMESF), higher = increase is 1.67 kMESF (inactive).

**Q.** Which GFP fluorescence (kMESF), higher = increase does the source give for `CC(C)(C)c1cc(C(c2cccnc2)N2CCN(CCO)CC2)cc(C(C)(C)C)c1O` (configuration not stated) here?
**A.** Its GFP fluorescence (kMESF), higher = increase is -4.66 kMESF (inactive).

**Q.** For `Cc1cc(NC(=O)c2cccnc2Cl)ccc1NC(=O)c1cc2ccccc2o1`, which GFP fluorescence (kMESF), higher = increase is on record?
**A.** The GFP fluorescence (kMESF), higher = increase was 3.21 kMESF (inactive).

**Q.** For `O=C1N(c2ccccc2C(F)(F)F)OC1(Cc1ccccc1)c1ccccc1` (configuration not stated), which GFP fluorescence (kMESF), higher = increase is on record?
**A.** The GFP fluorescence (kMESF), higher = increase was 2.86 kMESF (inactive).

**Q.** For `CCOC(=O)C1=C(O)c2ccccc2C(=O)/C1=C\c1ccc(C)cc1`, which GFP fluorescence (kMESF), higher = increase is on record?
**A.** The GFP fluorescence (kMESF), higher = increase was -34.5 kMESF (inactive).

**Q.** For `Cc1nn(C)c(C)c1N1C(=O)c2cccc3c(Br)ccc(c23)C1=O`, which GFP fluorescence (kMESF), higher = increase is on record?
**A.** The GFP fluorescence (kMESF), higher = increase was 3.61 kMESF (inactive).

**Q.** With `Cc1ccc(N2C(=O)C(Cl)=C(Nc3c(C)n(C)n(-c4ccccc4)c3=O)C2=O)cc1` as the molecule, how does the GFP fluorescence (kMESF), higher = increase read?
**A.** Its GFP fluorescence (kMESF), higher = increase is 1.97 kMESF (inactive).

**Q.** For `Cc1ccc2[nH]c(C)c(/C=C/c3cc[n+](C)cc3)c2c1`, which GFP fluorescence (kMESF), higher = increase is on record?
**A.** Its GFP fluorescence (kMESF), higher = increase is 4.54 kMESF (inactive).

**Q.** For `CCCc1nnc(NC(=O)c2c(O)c3cccc4c3n(c2=O)CCC4)s1`, which GFP fluorescence (kMESF), higher = increase is on record?
**A.** The GFP fluorescence (kMESF), higher = increase was -1.47 kMESF (inactive).

**Q.** For `Cc1cccc(N=C2NC(=O)/C(=C/C=C/c3ccco3)S2)c1C`, which GFP fluorescence (kMESF), higher = increase is on record?
**A.** The GFP fluorescence (kMESF), higher = increase was 6.73 kMESF (inactive).

**Q.** For `CC1=NNC(=O)/C1=C\c1cn(-c2ccccc2)nc1-c1cccs1`, which GFP fluorescence (kMESF), higher = increase is on record?
**A.** Its GFP fluorescence (kMESF), higher = increase is 3.14 kMESF (inactive).

**Q.** For `Oc1ccc(Br)cc1/C=N/Nc1ccccn1`, which GFP fluorescence (kMESF), higher = increase is on record?
**A.** Its GFP fluorescence (kMESF), higher = increase is 3.94 kMESF (inactive).

**Q.** Which GFP fluorescence (kMESF), higher = increase does the source give for `CC(c1ccccc1)N1C(=O)/C(=C/c2ccncc2)SC1=S` (configuration not stated) here?
**A.** The GFP fluorescence (kMESF), higher = increase was 2.87 kMESF (inactive).

**Q.** For `O=C1C=C(c2ccccc2)C(=O)N1Nc1ccccc1`, which GFP fluorescence (kMESF), higher = increase is on record?
**A.** Its GFP fluorescence (kMESF), higher = increase is 6.2 kMESF (inactive).

**Q.** For `Cc1ccc(C(=O)Oc2oc(-c3ccccc3)nc2C=Nc2ccc(N(C)C)cc2)cc1`, which GFP fluorescence (kMESF), higher = increase is on record?
**A.** The GFP fluorescence (kMESF), higher = increase was 4.19 kMESF (inactive).

**Q.** Which GFP fluorescence (kMESF), higher = increase does the source give for `CCN(CC(=O)NC(C)(C)C)C(=O)COc1c(Cl)cc(Cl)c2ccc(C)nc12` here?
**A.** Its GFP fluorescence (kMESF), higher = increase is 6.41 kMESF (inactive).

**Q.** Which GFP fluorescence (kMESF), higher = increase does the source give for `COc1ccc(OCC(=O)NNC(=S)NC(=O)C2CCCCC2)cc1` here?
**A.** The GFP fluorescence (kMESF), higher = increase was 3.25 kMESF (inactive).

**Q.** With `CC(=O)Nc1ncnc2c1c(-c1ccc(Cl)cc1)nn2C(C)(C)C` as the molecule, how does the GFP fluorescence (kMESF), higher = increase read?
**A.** The GFP fluorescence (kMESF), higher = increase was 2.08 kMESF (inactive).

**Q.** Which GFP fluorescence (kMESF), higher = increase does the source give for `COc1ccc(NC2=C(Cl)C(=O)N(CCc3ccccc3)C2=O)c(OC)c1` here?
**A.** Its GFP fluorescence (kMESF), higher = increase is 1.67 kMESF (inactive).

**Q.** For `CCCOc1ccc(C(=O)NNC(=S)NC(=O)c2ccccc2)cc1`, which GFP fluorescence (kMESF), higher = increase is on record?
**A.** Its GFP fluorescence (kMESF), higher = increase is 4.61 kMESF (inactive).
